This is an account of results in the supplement of paper PMC10307832.

Common to all, as to test: relative viability (nuclei count vs DMSO), 5 days (fraction); higher = more cells survive
Compound in the test “GW-2580 + Foretinib”: COC1=CC=C(C=C1)COC2=C(C=C(C=C2)CC3=CN=C(N=C3N)N)OC [GW-2580] + COc1cc2c(Oc3ccc(NC(=O)C4(C(=O)Nc5ccc(F)cc5)CC4)cc3F)ccnc2cc1OCCCN1CCOCC1 [Foretinib] (partner 0.25 µM)
In outline:
(§1)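 One day after seeding in 1536-well plates, lung cancer cell lines were dosed by pin tool. Dosing was either single-drug or a fixed anchor-drug dose plus five library-drug doses (not always all listed) in √10 steps. After 5 days, nuclei were stained in one fix-and-stain step and counted on 4× images, and relative viability is the nuclei count of treated wells over that of vehicle wells, given as the median of duplicate plates.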

Compound in the test “GW-2580 + Vorinostat”: COC1=CC=C(C=C1)COC2=C(C=C(C=C2)CC3=CN=C(N=C3N)N)OC [GW-2580] + O=C(CCCCCCC(=O)Nc1ccccc1)NO [Vorinostat] (partner 1 µM)
In outline: as §1

Compound in the test “GW-2580 + AZD7762”: COC1=CC=C(C=C1)COC2=C(C=C(C=C2)CC3=CN=C(N=C3N)N)OC [GW-2580] + NC(=O)Nc1cc(-c2cccc(F)c2)sc1C(=O)N[C@H]1CCCNC1 [AZD7762] (partner 0.2 µM)
The gist of the method: as §1

Compound in the test “GW-2580 + Decitabine”: COC1=CC=C(C=C1)COC2=C(C=C(C=C2)CC3=CN=C(N=C3N)N)OC [GW-2580] + Nc1ncn([C@H]2C[C@H](O)[C@@H](CO)O2)c(=O)n1 [Decitabine] (partner 2 µM)
The gist of the method:
as §1

With HCC-78, the relative viability in the test with GW-2580 + Foretinib (first compound 0.08 µM) is 0.524; in the test with GW-2580 + Foretinib (first compound 0.8 µM) it was 0.605; in the test with GW-2580 + Foretinib (first compound 2.53 µM), 0.513; in the test with GW-2580 + Foretinib (first compound 8 µM), 0.497; with GW-2580 + Vorinostat (first compound 0.08 µM), 0.461; with GW-2580 + Vorinostat (first compound 0.8 µM), 0.441. Also, the relative viability with GW-2580 + Vorinostat (first compound 2.53 µM) is 0.389; with GW-2580 + Vorinostat (first compound 8 µM), 0.39; with GW-2580 + AZD7762 (first compound 0.08 µM), 0.637; with GW-2580 + AZD7762 (first compound 0.8 µM), 0.663; with GW-2580 + AZD7762 (first compound 2.53 µM) it was 0.564; with GW-2580 + AZD7762 (first compound 8 µM), 0.589. Besides, the relative viability with GW-2580 + Decitabine (first compound 0.08 µM) amounted to 0.699; in the test with GW-2580 + Decitabine (first compound 0.8 µM), 0.786; in the test with GW-2580 + Decitabine (first compound 2.53 µM), 0.634; with GW-2580 + Decitabine (first compound 8 µM), 0.698.

As for HCC-366, the relative viability with GW-2580 + Foretinib (first compound 0.08 µM) came to 1; in the test with GW-2580 + Foretinib (first compound 0.8 µM) it was 0.879; in the test with GW-2580 + Foretinib (first compound 2.53 µM), 0.964; in the test with GW-2580 + Foretinib (first compound 8 µM), 0.791; with GW-2580 + Vorinostat (first compound 0.08 µM), 0.344; with GW-2580 + Vorinostat (first compound 0.8 µM), 0.395. Moreover, the relative viability amounted to 0.342 with GW-2580 + Vorinostat (first compound 2.53 µM); 0.357 in the test with GW-2580 + Vorinostat (first compound 8 µM); 0.359 in the test with GW-2580 + AZD7762 (first compound 0.08 µM); 0.317 with GW-2580 + AZD7762 (first compound 0.8 µM); 0.27 with GW-2580 + AZD7762 (first compound 2.53 µM); 0.142 in the test with GW-2580 + AZD7762 (first compound 8 µM). The relative viability in the test with GW-2580 + Decitabine (first compound 0.08 µM) amounted to 0.328; in the test with GW-2580 + Decitabine (first compound 0.8 µM) it was 0.375; with GW-2580 + Decitabine (first compound 2.53 µM) it was 0.352; in the test with GW-2580 + Decitabine (first compound 8 µM), 0.449.

In the case of HCC-827, the relative viability was found to be 1.13 in the test with GW-2580 + Foretinib (first compound 0.08 µM); 1.02 in the test with GW-2580 + Foretinib (first compound 0.8 µM); 1.02 with GW-2580 + Foretinib (first compound 2.53 µM); 0.905 with GW-2580 + Foretinib (first compound 8 µM); 0.652 with GW-2580 + Vorinostat (first compound 0.08 µM); 0.915 with GW-2580 + Vorinostat (first compound 0.8 µM). The relative viability stood at 0.828 with GW-2580 + Vorinostat (first compound 2.53 µM); 0.832 with GW-2580 + Vorinostat (first compound 8 µM); 0.207 in the test with GW-2580 + AZD7762 (first compound 0.08 µM); 0.244 with GW-2580 + AZD7762 (first compound 0.8 µM); 0.201 with GW-2580 + AZD7762 (first compound 2.53 µM); 0.214 with GW-2580 + AZD7762 (first compound 8 µM). Besides, the relative viability with GW-2580 + Decitabine (first compound 0.08 µM) came to 0.275; in the test with GW-2580 + Decitabine (first compound 0.8 µM), 0.317; with GW-2580 + Decitabine (first compound 2.53 µM), 0.299; in the test with GW-2580 + Decitabine (first compound 8 µM) it was 0.319.

Turning to HOP-62, the relative viability stood at 1.27 with GW-2580 + Foretinib (first compound 0.08 µM); 1.25 with GW-2580 + Foretinib (first compound 0.8 µM); 1.02 in the test with GW-2580 + Foretinib (first compound 2.53 µM); 1.11 with GW-2580 + Foretinib (first compound 8 µM); 0.736 with GW-2580 + Vorinostat (first compound 0.08 µM); 0.73 with GW-2580 + Vorinostat (first compound 0.8 µM). Besides, the relative viability with GW-2580 + Vorinostat (first compound 2.53 µM) is 0.539; with GW-2580 + Vorinostat (first compound 8 µM), 0.731; with GW-2580 + AZD7762 (first compound 0.08 µM), 0.664; in the test with GW-2580 + AZD7762 (first compound 0.8 µM) it was 0.74; with GW-2580 + AZD7762 (first compound 2.53 µM) it was 0.571; in the test with GW-2580 + AZD7762 (first compound 8 µM), 0.424. For the same cell line, the relative viability with GW-2580 + Decitabine (first compound 0.08 µM) came out at 0.174; with GW-2580 + Decitabine (first compound 0.8 µM), 0.192; with GW-2580 + Decitabine (first compound 2.53 µM), 0.231; in the test with GW-2580 + Decitabine (first compound 8 µM), 0.23.

For IA-LM, the relative viability amounted to 1.17 with GW-2580 + Foretinib (first compound 0.08 µM); 1.28 with GW-2580 + Foretinib (first compound 0.8 µM); 1.26 with GW-2580 + Foretinib (first compound 2.53 µM); 0.952 with GW-2580 + Foretinib (first compound 8 µM); 1.21 in the test with GW-2580 + Vorinostat (first compound 0.8 µM); 0.851 in the test with GW-2580 + Vorinostat (first compound 2.53 µM). The relative viability with GW-2580 + Vorinostat (first compound 8 µM) is 1.07.

For LC-2-ad, the relative viability was determined as 0.826 with GW-2580 + Foretinib (first compound 0.08 µM); 0.931 with GW-2580 + Foretinib (first compound 0.8 µM); 0.991 with GW-2580 + Foretinib (first compound 2.53 µM); 0.936 with GW-2580 + Foretinib (first compound 8 µM); 0.728 with GW-2580 + Vorinostat (first compound 0.08 µM); 0.751 with GW-2580 + Vorinostat (first compound 0.8 µM). For the same cell line, the relative viability with GW-2580 + Vorinostat (first compound 2.53 µM) was determined as 0.76; in the test with GW-2580 + Vorinostat (first compound 8 µM), 0.712; in the test with GW-2580 + AZD7762 (first compound 0.08 µM) it was 0.866; with GW-2580 + AZD7762 (first compound 0.8 µM) it was 0.948; with GW-2580 + AZD7762 (first compound 2.53 µM), 0.826; with GW-2580 + AZD7762 (first compound 8 µM), 0.873. Also, the relative viability was 0.82 with GW-2580 + Decitabine (first compound 0.08 µM), 0.913 with GW-2580 + Decitabine (first compound 0.8 µM), 0.833 with GW-2580 + Decitabine (first compound 2.53 µM) and 0.815 in the test with GW-2580 + Decitabine (first compound 8 µM).
